Where a SMILES comes first, the peptide text is derived from it. Bridges are numbered along the chain shown (N, C = ends). [ ]: non-standard residue; d: D form. The star is where a group is joined. X1 = CC[C@H](C)CCCCC(=O)*; Dab = NCC[C@H](N)C(=O)O
Legend:
E. Faecium = experiment: microbe, parasite or virus in culture; format: cell-based, Enterococcus Facium
Procedure: (§1) Bacterial clinical isolates, used for initial screening and in previous studies ([Deslouches et al., 2013]; [Lin et al., 2018]), were anonymously provided by the clinical microbiology laboratory of the University of Pittsburgh medical Center. The panel used for secondary screening was from [CDC (2013)] (Supplementary Table 3), with resistance profiles data. Bacteria are stored in lock-secured –80°C freezer and typically retrieved by obtaining single colonies on agar plates prior for subsequent liquid broth cultures. Suspensions of test bacteria were prepared from log phase of growth by diluting overnight cultures at 1:100 with fresh cation-adjusted MHB (MHB2, Millipore Sigma, United States) and incubating for additional 3–4 h. Bacteria were spun at 3,000 × g for 10 min and the pellet resuspended in test condition media (Millipore Sigma, United States) to determine bacterial turbidity using a Den-1B densitometer (Grant Instruments, United States) at 0.5 McFarland (unit of bacterial density) corresponding to […].
(§2) To examine antibacterial activity, we used minor modifications of a standard growth inhibition assay endorsed by the Clinical and Laboratory Standards Institute (CLSI), as previously described ([Deslouches et al., 2013]). Bacteria were incubated with each of the indicated peptides in MHB2. The bacterial cells were kept in an incubator for 18 h at 37°C, which is linked to a robotic system that feeds a plate reader every hour with one of 8 × 96-well plates. This set-up allows the collection of growth kinetic data at A 570 (absorbance at 570 nm) to examine growth inhibition in real time (BioTek Instruments, United States). […] The assays are typically repeated a second time. If the MIC is different, a third experimental trial is performed to confirm the MIC. To assess bactericidal properties of the peptide, the assay was modified by using 15% fetal bovine serum (FBS, for a more physiologically relevant test condition) mixed with 25% MHB2 and 60% PBS. Bacterial cells (colony forming unit/mL or CFU/mL) were enumerated after incubating treated bacteria for 3 h and plating serially diluted samples on broth agar medium at 37°C overnight. Minimum bactericidal concentration (MBC) was determined as the peptide concentration at which complete bacterial killing was observed. […] Data were analyzed using GraphPad Prism software.

S. aureus = experiment: microbe, parasite or virus in culture; format: cell-based
Procedure: as §1, §2

Measured: MIC

CC[C@H](C)CCCCC(=O)N[C@@H](CCN)C(=O)N[C@H](C(=O)N[C@@H](CCN)C(=O)N[C@H]1CCNC(=O)[C@H]([C@@H](C)O)NC(=O)[C@H](CCN)NC(=O)[C@H](CCN)NC(=O)[C@H](CC(C)C)NC(=O)[C@@H](CC(C)C)NC(=O)[C@H](CCN)NC1=O)[C@@H](C)O [Colistin, reference compound] (X1-[Dab]T[Dab][Dab][Dab][dL]L[Dab][Dab]T; lactam 4-C (inferred); N-terminus assumed)
>16 µM: E. Faecium; strain EF500, CDC clinical strain, confirmed by a second or third experimental trial | E. Faecium; strain EF671, CDC clinical strain, confirmed by a second or third experimental trial | E. Faecium; strain EF672, CDC clinical strain, confirmed by a second or third experimental trial | E. Faecium; strain EF673, CDC clinical strain, confirmed by a second or third experimental trial | E. Faecium; strain EF23614, UPMC, MHB2, 18 h, 37°C | E. Faecium; strain EF26215, UPMC, MHB2, 18 h, 37°C | E. Faecium; strain EF26692, UPMC, MHB2, 18 h, 37°C | S. aureus; strain SA461, CDC clinical strain, confirmed by a second or third experimental trial | S. aureus; strain SA462, CDC clinical strain, confirmed by a second or third experimental trial | S. aureus; strain SA463, CDC clinical strain, confirmed by a second or third experimental trial | S. aureus; strain SA561, CDC clinical strain, confirmed by a second or third experimental trial | S. aureus; strain SA12212, UPMC, MHB2, 18 h, 37°C | S. aureus; strain SA18710, UPMC, MHB2, 18 h, 37°C | S. aureus; strain SA49775, MHB2, 18 h, 37°C | S. aureus; strain SA-US300, MHB2, 18 h, 37°C

— article PMC9186412, “Rational Framework for the Design of Trp- and Arg-Rich Peptide Antibiotics Against Multidrug-Resistant Bacteria” (Frontiers in Microbiology, 2022)
